Test results published in patent US20220204491A1, “FXR (NR1H4) MODULATING COMPOUNDS” (Gilead Sciences, Inc., priority 2019, published 2022).
Read-outs that look alike come from different tables or passages of the source.

Columns and labels:
[1] = test system: Farnesoid X receptor; assay: In vivo pharmacodynamics in cynomolgus monkey: plasma FGF19 after oral versus IV dosing; settings: for FGF19 levels compared to baseline: IV administration; for FGF19 levels compared to baseline / plasma FGF19 over the dosing interval compared to baseline: cynomolgus monkey; for FGF19 AUClast: male cynomolgus monkey, plasma, 24 hour period; for Ratio AUClast to FG19/GS: FGF19 AUClast over drug AUClast; for PO/IV: PO ratio (FGF19/GS AUClast) over IV ratio; for plasma FGF19 over the dosing interval compared to baseline: oral administration
Description: In vivo pharmacodynamics of Formula (I) of Example 1, Comparative Example 1, and Comparative Example 2 were determined as follows.
(§1) Oral solution doses of Formula (I) (Example 1) were formulated at concentrations of 1 mg/mL in aqueous suspensions of 1% sodium laurel sulfate (SLS), 1% ethanol, and 98% water at pH 2. Oral suspension doses of Comparative Example 1, and Comparative Example 2 were formulated at concentrations of 2.5 mg/mL in 1% hydyroxypropyl methylcellulose (HPMC), 0.5% Tween 80, and 98.5% water.
(§2) Intravenous doses of compounds of Formula (I) (Example 1), Comparative Example 1, and Comparative Example 2 were formulated at concentrations of 0.5 mg/mL in a vehicle including 5% DMSO, 15% NMP, 60% PEG 300 and water with 1.1 equivalents of NaOH.
(§3) Each dosing group consisted of three to six male Cynomolgus monkeys. At dosing, the animals weighed between 2.4 and 4.4 kg.
(§4) The oral test articles were administered to the monkeys via oral gavage at 2 mL/kg or nasogastric untubation at 5 mL/kg for a dose of 5 mg/kg. The intravenous test articles were administered as an approximately 30-minute infusion via an indwelling catheter in a saphenous or cephalic vein at approximately 2 mL/kg for a dose of 1 mg/kg.
(§5) Venous blood samples were taken at specified time points after dosing from each animal. The blood samples were collected and transferred into tubes containing potassium (K2) EDTA anticoagulant.
The FGF19 ELISA assay kit from BioVendor (product number RD191107200R) was used to determine FGF19 concentrations in the collected blood samples.
(§6) Activation of the Farnesoid X receptor in the distal small intestine as well as systemically in organs such as the liver, directly causes the expression and secretion of FGF19. Plasma FGF levels were evaluated as a pharmacodynamics marker of FXR activation in male cynomolgus monkeys following administration of oral and intravenous administration of doses of Example 1, Comparative Example 1, or Comparative Example 2. The difference between levels of FGF19 following oral administration (PO) versus intravenous administration (IV) were used to compare the degree of intestinal FXR agonism (via analysis of PO data) and systemic FXR agonism (via analysis of IV data) for each compound administered. Plasma levels of drug and FGF19 were measured at various time points over a 24 hour period to generate pharmacokinetic and pharmacodynamics curves.

[2] = Drug concentration in plasma of cynomolgus monkey (LC/MS/MS); assay type: in vivo; settings: male cynomolgus monkey, read-out: GS-AUClast
Description: as §1, §2, §3, §4, §5
For analysis on an API 5000 LC/MS/MS system, an aliquot of 50 μL of each plasma sample was treated with 200 μL of acetonitrile (ACN) containing internal standard. The above solution was centrifuged at 5000 RPM for 10 minutes and 50 μL of supernatant was transferred to a clean 96-well plate, followed by the addition of 200 μL of water. An aliquot of 10 μL was injected to the API 5000 LC/MS/MS system.
For analysis on an Applied Biosystems API 5500 LC/MS/MS system, an aliquot of 20 μL of each plasma sample was treated with 120 μL acetonitrile (ACN) containing internal standard. The above solution was centrifuged and 100 μL of supernatant was transferred to a clean 96-well plate, followed by the addition of 100 μL of water. An aliquot of 7-10 μL was injected to the API 5500 LC/MS/MS system.
A Zorbax Extend C18 HPLC column (50×2.1 mm, 3.5 μm) from Agilent Technologies (Part #735700-902) (Comparative Example 1, and Comparative Example 2) or a Waters BEH C18 column (50×2.1 mm, 1.7 μm) (Example 1) was used. For the Zorbax Extend C18 HPLC column, mobile phase A contained an aqueous solution of 1% acetonitrile in 10 mM ammonium formate adjusted to pH 3.0 with formic acid and mobile phase B contained and 10% 10 mM ammonium formate in acetonitrile adjusted to pH 4.6 with formic acid. For the Waters BEH C18 column, mobile phase A contained 95% water, 5% acetonitrile, and 0.1% formic acid and mobile phase B contained 50% methanol, 50% acetonitrile, and 0.1% formic acid. A Thermo Aria multiplexer with two identical Agilent 1200 series binary pumps (P/N G1312A Bin Pump) was used for elution and separation. The elution programs used are set forth in the following Table 2 for the Zorbax Extend C18 HPLC and Table 3 for the Waters BEH C18 column.
An API 5000 triple quadrupole mass spectrometer from AB Sciex, Foster City, Calif. was used in multiple reaction monitoring mode to quantify the compounds.
as §6, with “Plasma levels of drug and FGF19 were measured at various time points over a 24 hour period to generate pharmacokinetic and pharmacodynamics curves.” left out

| SMILES | FGF19 levels compared to baseline ([1]; 1 mg/kg) | FGF19 AUClast ([1]; IV infusion, 1 mg/kg) | Ratio AUClast to FG19/GS ([1]; IV, 1 mg/kg) | PO/IV [1] | FGF19 AUClast ([1]; PO, 5 mg/kg) | Ratio AUClast to FG19/GS ([1]; PO, 5 mg/kg) | plasma FGF19 over the dosing interval compared to baseline ([1]; 5 mg/kg) | AUC(0-t) ([2]; IV infusion, 1 mg/kg) | AUC(0-t) ([2]; PO, 5 mg/kg) |
| --- | --- | --- | --- | --- | --- | --- | --- | --- | --- |
| O=C(O)c1cnc(N2CC(O)(c3ccc(OCc4c(-c5c(Cl)cc(F)cc5Cl)noc4C4CC4)cc3Cl)C2)c(F)c1 [Comparative Example 1, 6-(3-(2-chloro-4-((5-cyclopropyl-3-(2,6-dichloro-4-fluorophenyl)isoxazol-4-yl)methoxy)phenyl)-3-hydroxyazetidin-1-yl)-5-fluoronicotinic acid] | increased FGF19 levels | 22798 ± 2387 pg·h/mL | 14 | 1.37 | 32085 ± 4252 pg·h/mL | 19.2 | caused increases in plasma FGF19 | 1.63 µM·h | 1.67 µM·h |
| O=C(O)c1ccc(N2CC(O)(c3ccc(OCc4c(-c5c(Cl)cccc5Cl)noc4C4CC4)cc3Cl)C2)nc1 [Comparative Example 2] | increased FGF19 levels | 10757 ± 2551 pg·h/mL | 3.4 | 8.2 | 18193 ± 7134 pg·h/mL | 28 | caused increases in plasma FGF19 | 3.14 µM·h | 0.643 µM·h |
| O=C(O)c1ccc(N2CC(O)(c3ccc(OCc4c(-c5c(Cl)cc(F)cc5Cl)noc4C4CC4)cc3Cl)C2)nc1 [Example 1, 6-(3-(2-chloro-4-((5-cyclopropyl-3-(2,6-dichloro-4-fluorophenyl)isoxazol-4-yl)methoxy)phenyl)-3-hydroxyazetidin-1-yl)nicotinic acid] | did not cause in increase in FGF19 | 5144 ± 2199 pg·h/mL | 1.6 | 7.8 | 28153 ± 11539 pg·h/mL | 12.5 | caused increases in plasma FGF19 | 3.15 µM·h | 2.25 µM·h |
